Measurements: article PMC13213488, “Small Molecule Activators of Protein Phosphatase 2A Exert Global Stabilizing Effects on the Scaffold PR65” (JACS Au, 2026)

Biological target: T1, PR65 (Homo sapiens, UniProt P30153)
T1 construct: gene PPP2R1A; WT PR65 alone (scaffold, 15 HEAT repeats, no B or C subunit), expressed in E. coli C41 as GST fusion, GST tag cleaved with thrombin; also a variant with ybbR tags at N- and C-termini used for optical tweezers
Assay: nanoDSF thermal shift
Assay type: binding
Conditions: melting temperature with ligand, not a shift (apo 52.7 ± 0.1 °C); 2 μM PR65, 100 μM ligand, PBS, 2 mM DTT, 10% DMSO

T1 sequence (P30153 2-589): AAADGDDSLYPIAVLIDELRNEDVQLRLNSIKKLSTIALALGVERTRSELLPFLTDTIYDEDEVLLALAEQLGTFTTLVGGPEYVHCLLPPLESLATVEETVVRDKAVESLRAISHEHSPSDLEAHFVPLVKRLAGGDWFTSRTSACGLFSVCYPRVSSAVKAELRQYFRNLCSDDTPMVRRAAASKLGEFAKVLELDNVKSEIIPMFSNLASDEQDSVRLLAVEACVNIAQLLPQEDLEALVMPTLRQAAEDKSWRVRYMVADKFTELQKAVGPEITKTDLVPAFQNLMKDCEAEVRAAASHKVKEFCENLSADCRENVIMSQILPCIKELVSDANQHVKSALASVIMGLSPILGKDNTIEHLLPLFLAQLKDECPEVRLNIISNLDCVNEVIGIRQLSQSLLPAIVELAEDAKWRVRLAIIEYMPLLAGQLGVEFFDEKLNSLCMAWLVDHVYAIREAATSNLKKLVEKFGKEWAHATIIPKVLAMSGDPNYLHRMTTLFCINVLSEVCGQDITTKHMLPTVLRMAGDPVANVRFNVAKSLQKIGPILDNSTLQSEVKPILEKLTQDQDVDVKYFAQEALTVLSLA

With DBK-766 the T m was 53.5 ± 0.1 °C.
